Assay results from ChEMBL document CHEMBL5512632, “Unlocking the potential of 1,4-naphthoquinones: A comprehensive review of their anticancer properties” (Eur J Med Chem, 2024).
Converted amounts (≈) assume the structure as drawn.

Experiments:
MDA-MB-231 = assay: Antiproliferative activity against human MDA-MB-231 cells incubated for 48 hrs by MTT assay; format: functional, cell-based; settings: MDA-MB-231, 48 h
A549 [1] = assay: Antiproliferative activity against human A549 cells incubated for 48 hrs by MTT assay; format: functional, cell-based; settings: A549, 48 h
HepG2 [2] = assay: Antiproliferative activity against human HepG2 cells incubated for 48 hrs by MTT assay; format: functional, cell-based; settings: HepG2, 48 h
PC-3 [3] = assay: Cytotoxicity against human PC-3 cells assessed as inhibition of cell growth incubated for 72 hrs by sulforhodamine B assay; format: functional, cell-based; settings: PC-3, 72 h
MCF7 [4] = assay: Cytotoxicity against human MCF7 cells assessed as inhibition of cell growth incubated for 72 hrs by sulforhodamine B assay; format: functional, cell-based; settings: MCF7, 72 h
HT-29 = assay: Cytotoxicity against human HT-29 cells assessed as inhibition of cell growth incubated for 72 hrs by sulforhodamine B assay; format: functional, cell-based; settings: HT-29, 72 h
HeLa [5] = assay: Cytotoxicity against human HeLa cells by sulforhodamine B staining based spectrophotometric analysis; format: functional, cell-based
TK-10 = assay: Cytotoxicity against human TK-10 cells by sulforhodamine B staining based spectrophotometric analysis; format: functional, cell-based
MCF7 [6] = assay: Cytotoxicity against human MCF7 cells by sulforhodamine B staining based spectrophotometric analysis; format: functional, cell-based
PC-3 [7] = assay: Cytotoxicity against human PC-3 cells by sulforhodamine B staining based spectrophotometric analysis; format: functional, cell-based
UACC-62 = assay: Cytotoxicity against human UACC-62 cells by sulforhodamine B staining based spectrophotometric analysis; format: functional, cell-based
HepG2 [8] = assay: Cytotoxicity against human HepG2 cells by sulforhodamine B staining based spectrophotometric analysis; format: functional, cell-based
SK-OV-3 [9] = assay: Cytotoxicity against human SK-OV-3 cells assessed as reduction in cell growth incubated for 24 hrs by DAPI staining based fluorescence imaging analysis; format: functional; settings: SK-OV-3, 24 h
OVCAR-5 = assay: Cytotoxicity against human OVCAR-5 cells assessed as reduction in cell growth incubated for 24 hrs by DAPI staining based fluorescence imaging analysis; format: functional; settings: OVCAR-5, 24 h
Bel-7402 = assay: Antiproliferative activity against human Bel-7402 cells assessed as inhibition of cell growth incubated for 72 hrs by MTT reagent based microplate reader assay; format: functional; settings: Bel-7402, 72 h
HCT-15 [10] = assay: Antiproliferative activity against human HCT-15 cells assessed as inhibition of cell growth incubated for 72 hrs by MTT reagent based microplate reader assay; format: functional; settings: HCT-15, 72 h
MGC-803 = assay: Antiproliferative activity against human MGC-803 cells assessed as inhibition of cell growth incubated for 72 hrs by MTT reagent based microplate reader assay; format: functional; settings: MGC-803, 72 h
MCF7 [11] = assay: Antiproliferative activity against human MCF7 cells assessed as inhibition of cell growth incubated for 72 hrs by MTT reagent based microplate reader assay; format: functional; settings: MCF7, 72 h
HCT-15 [12] = assay: Cytotoxicity against human HCT-15 cells assessed as reduction in cell viability incubated for 48 hrs by MTT assay; format: functional, cell-based; settings: HCT-15, 48 h
DU-145 = assay: Cytotoxicity against human DU-145 cells assessed as reduction in cell viability incubated for 48 hrs by MTT assay; format: functional, cell-based; settings: DU-145, 48 h
HeLa [13] = assay: Cytotoxicity against human HeLa cells assessed as reduction in cell viability incubated for 48 hrs by MTT assay; format: functional, cell-based
MCF7 [14] = assay: Cytotoxicity against human MCF7 cells assessed as reduction in cell viability incubated for 48 hrs by MTT assay; format: functional, cell-based; settings: MCF7, 48 h
PC-3 [15] = assay: Cytotoxicity against human PC-3 cells assessed as reduction in cell viability incubated for 48 hrs by MTT assay; format: functional, cell-based; settings: PC-3, 48 h
[16] = Cytotoxicity against mouse JB6 Cl 41-5a cells incubated for 24 hrs by MTT reagent based microplate reader analysis; format: toxicity, cell-based
N2a = assay: Cytotoxicity against mouse Neuro2a cells incubated for 24 hrs by MTT reagent based microplate reader analysis; format: functional, cell-based
HeLa [17] = assay: Cytotoxicity against human HeLa cells incubated for 24 hrs by MTT reagent based microplate reader analysis; format: functional, cell-based
K562 = assay: Cytotoxicity against human K562 cells assessed as reduction in cell viability incubated for 72 hrs by MTT reagent based microplate reader assay; format: functional; settings: K562, 72 h
HCT-116 = assay: Cytotoxicity against human HCT-116 cells assessed as reduction in cell viability incubated for 72 hrs by MTT reagent based microplate reader assay; format: functional; settings: HCT-116, 72 h
HCT-15 [18] = assay: Cytotoxicity against human HCT-15 cells assessed as reduction in cell viability incubated for 72 hrs by MTT reagent based microplate reader assay; format: functional; settings: HCT-15, 72 h
[19] = Antiproliferative activity against human SK-RC-45 cells assessed as reduction in cell growth incubated for 24 hrs by MTT assay; format: functional, cell-based; settings: SK-RC-45, 24 h
A549 [20] = assay: Antiproliferative activity against human A549 cells assessed as reduction in cell growth incubated for 24 hrs by MTT assay; format: functional, cell-based; settings: A549, 24 h
A498 = assay: Antiproliferative activity against human A498 cells assessed as reduction in cell growth incubated for 24 hrs by MTT assay; format: functional, cell-based; settings: A498, 24 h
HeLa [21] = assay: Antiproliferative activity against human HeLa cells assessed as reduction in cell growth incubated for 24 hrs by MTT assay; format: functional, cell-based
Glioblastoma cell line = assay: Antiproliferative activity against human Glioblastoma cell line assessed as reduction in cell growth incubated for 24 hrs by MTT assay; format: functional, cell-based
LNCaP = assay: Antiproliferative activity against human LNCaP cells assessed as reduction in cell growth incubated for 48 hrs by MTT reagent based microplate reader assay; format: functional
A549 [22] = assay: Antiproliferative activity against human A549 cells assessed as reduction in cell growth incubated for 48 hrs by MTT reagent based microplate reader assay; format: functional; settings: A549, 48 h
SK-OV-3 [23] = assay: Antiproliferative activity against human SK-OV-3 cells assessed as reduction in cell growth incubated for 48 hrs by MTT reagent based microplate reader assay; format: functional; settings: SK-OV-3, 48 h
HepG2 [24] = assay: Antiproliferative activity against human HepG2 cells assessed as reduction in cell growth incubated for 48 hrs by MTT reagent based microplate reader assay; format: functional; settings: HepG2, 48 h
MCF7 [25] = assay: Antiproliferative activity against human MCF7 cells assessed as reduction in cell growth incubated for 48 hrs by MTT reagent based microplate reader assay; format: functional; settings: MCF7, 48 h
NAMALVA [26] = assay: Antiproliferative activity against human NAMALVA cells assessed as inhibition of cell growth incubated upto 24 hrs by MTT assay; format: functional, cell-based
NAMALVA [27] = assay: Antitumor activity against human NAMALVA cells xenografted in NOD/SCID mouse assessed as reduction in tumor weight at 4 mg/kg,ip administration for 19 consecutive days; format: functional; design: scale not given: the % may be the effect or the level left
A549 [28] = assay: Cytotoxicity against human A549 cells incubated for 24 hrs by MTT assay; format: functional, cell-based; settings: A549, 24 h
[29] = Cytotoxicity against human Lung adenocarcinoma cell line; format: functional, cell-based

For `CC1=C(CCNC(=O)c2ccccc2)C(=O)c2c(O)cccc2C1=O`, the IC50 (MDA-MB-231) was 6.01 µM, the IC50 (A549 [1]) was 7.02 µM and the IC50 (HepG2 [2]) was 7.2 µM.

Compound `CN(C)N1C=C2C[C@@H](O[Si](C)(C)C(C)(C)C)[C@@H]3OC(C)(C)O[C@@H]3[C@H]2C2=C1C(=O)c1c(O)cccc1C2=O` has an IC50 (PC-3 [3]) of 700 nM, an IC50 (MCF7 [4]) of 16 µM and an IC50 (HT-29) of 200 nM.

With `O=C1C(CSc2ccc(F)cc2)=C(C2=C(CSc3ccc(F)cc3)C(=O)c3ccccc3C2=O)C(=O)c2ccccc21` the IC50 (HeLa [5]) was 31.5 µM, the IC50 (TK-10) was 3.77 µM and the IC50 (MCF7 [6]) was 3.24 µM. It also gave an IC50 (PC-3 [7]) of 6.98 µM, an IC50 (UACC-62) of 2980 nM and an IC50 (HepG2 [8]) of 8.75 µM.

Compound `COc1cc(/C=C/C(=O)/C=C(O)/C=C/c2ccc(OC3=CC(=O)c4ccccc4C3=O)c(OC)c2)ccc1OC1=CC(=O)c2ccccc2C1=O` has an IC50 (SK-OV-3 [9]) of 5.35 µM and an IC50 (OVCAR-5) of 4.05 µM.

In the case of `CCCCCCCC(Oc1cc(OC)c(OC)c(OC)c1)c1ccc2c(c1)/C(=N\O)C=C/C2=N\O` (stereo not drawn), the IC50 (Bel-7402) is reported as 4.21 µM, the IC50 (HCT-15 [10]) is reported as 1640 nM and the IC50 (MGC-803) is reported as 3.28 µM. It also gave an IC50 (MCF7 [11]) of 6.94 µM.

In the case of `CO/N=C1\C(c2cc3c(cc2OC)OCO3)=CC(=O)c2cc3c(cc21)OCO3`, the IC50 (HCT-15 [12]) is reported as 55 nM, the IC50 (DU-145) is reported as 23 nM and the IC50 (HeLa [13]) is reported as 104 nM. The IC50 (MCF7 [14]) was 196 nM and the IC50 (PC-3 [15]) was 319 nM.

`O=C1C2=C(O[C@@H]3[C@@H](O)[C@@H](O)CO[C@H]3S2)C(=O)c2c(O)cccc21` gave an IC50 at 24 h [16] of 700 nM, an IC50 (N2a) of 1400 nM and an IC50 (HeLa [17]) of 400 nM.

For `COc1cc(C(CCC(C)C)OC)c(OC)c2c1/C(=N/O)C=C/C2=N/O` (stereo not drawn), the IC50 (K562) was 1250 nM, the IC50 (HCT-116) was 2470 nM and the IC50 (HCT-15 [18]) was 1630 nM.

`O=C1C(O)=C(C(C2=C(O)C(=O)c3ccccc3C2=O)c2ccc(C(F)(F)F)cc2)C(=O)c2ccccc21` showed an IC50 [19] of 30.3 µM, an IC50 (A549 [20]) of 29.6 µM and an IC50 (A498) of 27.5 µM. For the same compound, the IC50 (HeLa [21]) was 34.3 µM and the IC50 (Glioblastoma cell line) was 17.2 µM.

In the case of `CC1=C(C2CC(=O)N(C)C2=O)C(=O)c2c(O)cccc2C1=O` (stereo not drawn), the IC50 (LNCaP) is reported as 3.62 µM, the IC50 (A549 [22]) is reported as 6.11 µM and the IC50 (SK-OV-3 [23]) is reported as 12.2 µM. The IC50 (HepG2 [24]) was 7.13 µM and the IC50 (MCF7 [25]) was 4.91 µM.

Compound `CC(C)=CC[C@@H](O)C1=CC(=O)c2c(O)ccc(O)c2C1=O` [SHIKONIN] has an IC50 (NAMALVA [26]) of 193 µM, an Activity (NAMALVA [27]) of 50% and an IC50 (A549 [28]) of 3.52 µg/mL (≈ 12.2 µM). For the same compound, the IC50 [29] was under 5 µM.
